Results from US20240174662A1, “SMALL MOLECULE INHIBITORS OF SALT INDUCIBLE KINASES” (Janssen Biotech, Inc., priority 2021, published 2024).

What follows are compounds tested against SIK2 (Homo sapiens (Human), UniProt Q9H0K1) (assay: SIK2 Enzymatic Assay Version 2 (High ATP)). Conditions: 3 mM ATP and 200 μM HDAC5tide final, ADP-Glo Max luminescence.
Assay type: biochemical
Summary of the method: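 Luminescent ADP-Glo Max read-out: depletion reagent 2 h, then detection reagent 1 h. Before the reaction, compounds were incubated 30 min with enzyme added at 6 nM (twice final concentration), with all steps at room temperature.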

SIK2, sequence (Q9H0K1 whole entry, species assumed): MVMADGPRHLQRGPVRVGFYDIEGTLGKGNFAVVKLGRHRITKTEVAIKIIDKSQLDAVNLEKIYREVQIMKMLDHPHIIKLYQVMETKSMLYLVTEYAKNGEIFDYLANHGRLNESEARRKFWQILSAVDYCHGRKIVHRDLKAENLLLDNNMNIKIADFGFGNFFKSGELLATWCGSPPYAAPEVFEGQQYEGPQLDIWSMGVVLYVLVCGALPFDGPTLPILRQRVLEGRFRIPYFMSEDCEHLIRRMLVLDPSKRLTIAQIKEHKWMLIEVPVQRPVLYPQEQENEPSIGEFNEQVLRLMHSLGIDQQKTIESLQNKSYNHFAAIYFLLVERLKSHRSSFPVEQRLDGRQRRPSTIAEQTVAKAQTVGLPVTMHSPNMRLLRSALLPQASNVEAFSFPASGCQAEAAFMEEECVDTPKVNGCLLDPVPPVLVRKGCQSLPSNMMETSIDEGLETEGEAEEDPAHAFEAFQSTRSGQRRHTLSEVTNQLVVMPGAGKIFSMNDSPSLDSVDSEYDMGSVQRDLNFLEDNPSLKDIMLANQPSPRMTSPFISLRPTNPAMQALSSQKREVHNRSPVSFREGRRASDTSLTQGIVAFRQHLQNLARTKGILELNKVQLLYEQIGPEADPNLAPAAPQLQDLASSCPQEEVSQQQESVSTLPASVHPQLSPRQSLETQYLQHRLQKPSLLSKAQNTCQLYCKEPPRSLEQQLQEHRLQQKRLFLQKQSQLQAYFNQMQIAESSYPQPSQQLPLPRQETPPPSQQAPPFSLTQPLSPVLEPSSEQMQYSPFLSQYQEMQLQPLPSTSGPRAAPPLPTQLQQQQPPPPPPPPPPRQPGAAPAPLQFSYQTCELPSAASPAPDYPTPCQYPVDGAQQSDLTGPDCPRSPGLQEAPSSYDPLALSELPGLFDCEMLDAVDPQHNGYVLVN

IC50 [nM] | SMILES
2.2 | Cc1cncc(Nc2cc3cc(-c4c(CO[C@@H]5CN(C)C[C@@H]5C)cnn4C)ccn3n2)n1 (stereo in doubt) [Example 379, CIS—*S, *S-5-[4-[(1,4-dimethylpyrrolidin-3-yl)oxymethyl]-2-methyl-pyrazol-3-yl]-N-(6-methylpyrazin-2-yl)pyrazolo[1,5-a]pyridin-2-amine]
170 | CO[C@@H]1CN(C)C[C@@H]1Oc1cnn(C)c1-c1ccn2nc(NC(=O)C3CC3)cc2c1 (racemic) [Example 409, (rac-cis)-N-[5-[4-(4-methoxy-1-methyl-pyrrolidin-3-yl)oxy-2-methyl-pyrazol-3-yl]pyrazolo[1,5-a]pyridin-2-yl]cyclopropanecarboxamide]
66.2 | Cn1ncc(OC[C@H]2CCCN2CCF)c1-c1ccn2nc(NC(=O)C3CC3)cc2c1 [Example 350, N-[5-[4-[[(2R)-1-(2-fluoroethyl)pyrrolidin-2-yl]methoxy]-2-methyl-pyrazol-3-yl]pyrazolo[1,5-a]pyridin-2-yl]cyclopropanecarboxamide]
30.9 | Cc1cc(Nc2cc3cc(-c4c(OC[C@@H]5COC(C)(C)C5)cnn4C)ccn3n2)nc(C)n1 (single isomer, unassigned) [Example 307, (*R)—N-(2,6-dimethylpyrimidin-4-yl)-5-[4-[(5,5-dimethyltetrahydrofuran-3-yl)methoxy]-2-methyl-pyrazol-3-yl]pyrazolo[1,5-a]pyridin-2-amine]
24.4 | Cc1cnc(Nc2cc3cc(-c4c(CO[C@H]5CN(C)C[C@@H]5C)cnn4C)ccn3n2)cn1 (stereo in doubt) [Example 372, Trans-*S, *R-5-[4-[(1,4-dimethylpyrrolidin-3-yl)oxymethyl]-2-methyl-pyrazol-3-yl]-N-(5-methylpyrazin-2-yl)pyrazolo[1,5-a]pyridin-2-amine]
66.8 | Cc1cc(Nc2cc3cc(-c4c(O[C@H]5C[C@H]6CC[C@@H]5O6)cnn4C)ccn3n2)nc(C)n1 (single isomer, unassigned) [Example 352, (1*S, 2*S, 4*R)—N-(2,6-dimethylpyrimidin-4-yl)-5-[2-methyl-4-(7-oxabicyclo[2.2.1]heptan-3-yloxy)pyrazol-3-yl]pyrazolo[1,5-a]pyridin-2-amine]
58.9 | Cn1ncc(OC[C@H]2CCN2)c1-c1ccn2nc(NC(=O)C3CC3)cc2c1 [Example 346, (R)—N-(5-(4-(azetidin-2-ylmethoxy)-1-methyl-1H-pyrazol-5-yl)pyrazolo[1,5-a]pyridin-2-yl)cyclopropanecarboxamide]
122 | Cn1ncc(OC[C@H]2CCN2CC2COC2)c1-c1ccn2nc(NC(=O)C3CC3)cc2c1 [Example 433, N-[5-[2-methyl-4-[[(2R)-1-(oxetan-3-ylmethyl)azetidin-2-yl]methoxy]pyrazol-3-yl]pyrazolo[1,5-a]pyridin-2-yl]cyclopropanecarboxamide]
96.1 | Cc1onc(O[C@H]2CCN(C)C2)c1-c1ccn2nc(NC(=O)C3CC3)cc2c1 [Example 382, N-[5-[5-methyl-3-[(3S)-1-methylpyrrolidin-3-yl]oxy-isoxazol-4-yl]pyrazolo[1,5-a]pyridin-2-yl]cyclopropanecarboxamide]
136 | CN1CCC[C@H]1COc1cnn(C)c1-c1ccn2nc(NC(=O)C3CC3)cc2c1 [Example 419, N-[5-[2-methyl-4-[[(2S)-1-methylpyrrolidin-2-yl]methoxy]pyrazol-3-yl]pyrazolo[1,5-a]pyridin-2-yl]cyclopropanecarboxamide]
55.1 | Cn1ncc(OC[C@H]2C[C@H](N)C2)c1-c1ccn2nc(NC(=O)C3CC3)cc2c1 [Example 334, N-[5-[4-[(3-aminocyclobutyl)methoxy]-2-methyl-pyrazol-3-yl]pyrazolo[1,5-a]pyridin-2-yl]cyclopropanecarboxamide]
72.9 | Cc1cc(Nc2cc3cc(-c4c(O[C@H]5C[C@@H]6CC[C@H]5O6)cnn4C)ccn3n2)nc(C)n1 (single isomer, unassigned) [Example 441, (1*R, 2*S, 4*S)—N-(2,6-dimethylpyrimidin-4-yl)-5-[2-methyl-4-(7-oxabicyclo[2.2.1]heptan-3-yloxy)pyrazol-3-yl]pyrazolo[1,5-a]pyridin-2-amine]

Continued, compound first:

SMILES | IC50 [nM]
CN1CC2(CCOCC2)[C@@H]1COc1cnn(C)c1-c1ccn2nc(NC(=O)C3CC3)cc2c1 (single isomer, unassigned) [Example 58, (*R)—N-(5-(1-methyl-4-((2-methyl-7-oxa-2-azaspiro[3.5]nonan-1-yl)methoxy)-1H-pyrazol-5-yl)pyrazolo[1,5-a]pyridin-2-yl)cyclopropanecarboxamide] | 57.8
CN1CC[C@H](Oc2cnn(C)c2-c2ccn3nc(Nc4cc5c(nn4)CCC5)cc3c2)C1 [Example 269, N-(6,7-dihydro-5H-cyclopenta[c]pyridazin-3-yl)-5-[2-methyl-4-[(3S)-1-methylpyrrolidin-3-yl]oxy-pyrazol-3-yl]pyrazolo[1,5-a]pyridin-2-amine] | 33.2
CCN1CC[C@@H]1COc1cnn(C)c1-c1ccn2nc(Nc3ccnc(C(F)(F)F)n3)cc2c1 [Example 161, 5-[4-[[(2R)-1-ethylazetidin-2-yl]methoxy]-2-methyl-pyrazol-3-yl]-N-[2-(trifluoromethyl)pyrimidin-4-yl]pyrazolo[1,5-a]pyridin-2-amine] | < 0.847
Cc1onc(OCC2(F)CNC2)c1-c1ccn2nc(NC(=O)C3CC3)cc2c1 [Example 83, N-[5-[3-[(3-fluoroazetidin-3-yl)methoxy]-5-methyl-isoxazol-4-yl]pyrazolo[1,5-a]pyridin-2-yl]cyclopropanecarboxamide] | 10.9
CN1CC[C@H](Oc2cnn(C)c2-c2ccn3nc(Nc4cccc(C(F)(F)F)n4)cc3c2)C1 [Example 266, 5-[2-methyl-4-[(3S)-1-methylpyrrolidin-3-yl]oxy-pyrazol-3-yl]-N-[6-(trifluoromethyl)-2-pyridyl]pyrazolo[1,5-a]pyridin-2-amine] | 39.5
CN1CC(COc2cnn(C)c2-c2ccn3nc(NC(=O)C4CC4)cc3c2)C1 [Example 8, N-[5-[2-methyl-4-[(1-methylazetidin-3-yl)methoxy]pyrazol-3-yl]pyrazolo[1,5-a]pyridin-2-yl]cyclopropanecarboxamide] | 18.9
CN1CC[C@@H]1COc1cnn(C)c1-c1ccn2nc(Nc3ccnc(C(F)(F)F)n3)cc2c1 [Example 118, 5-[2-methyl-4-[[(2R)-1-methylazetidin-2-yl]methoxy]pyrazol-3-yl]-N-[2-(trifluoromethyl)pyrimidin-4-yl]pyrazolo[1,5-a]pyridin-2-amine] | 1.9
Cc1ccc(Nc2cc3cc(-c4c(OC[C@H]5CCCN5C)cnn4C)ccn3n2)nn1 [Example 287, 5-[2-methyl-4-[[(2R)-1-methylpyrrolidin-2-yl]methoxy]pyrazol-3-yl]-N-(6-methylpyridazin-3-yl)pyrazolo[1,5-a]pyridin-2-amine] | 37.2
CN1CC[C@@H]1COc1cnn(C)c1-c1ccn2nc(Nc3ccc(C(=O)NCCC#N)cn3)cc2c1 [Example 135, N-(2-cyanoethyl)-6-[[5-[2-methyl-4-[[(2R)-1-methylazetidin-2-yl]methoxy]pyrazol-3-yl]pyrazolo[1,5-a]pyridin-2-yl]amino]pyridine-3-carboxamide] | 5.8
